Data reported in US7186701B2, “Dehydrating agent and method for dehydrating moist article using the agent and dehydrated article obtained by the method” (Kabushiki Kaisha Hayashibara Seibutsu Kagaku Kenkyujo, priority 2001, dated 2007).

Assays:
[1] = system: Bacteroides vulgatus JCM 5826; test: Assimilation test; format: cell-based; conditions: 0.5% saccharide in PYF medium, 37° C., four days, anaerobic
[2] = Saturation concentration of cyclotetrasaccharide in water; format: physicochemical
Text: The resulting each saturated solution of cyclotetrasaccharide was membrane filtered to remove undissolved cyclotetrasaccharide, and each filtrate was then examined for moisture content by the drying loss method to determine a saturation concentration of cyclotetrasaccharide at respective temperatures.

[3] = system: Escherichia coli IFO 3301; test: Assimilation test; format: cell-based; conditions: 0.5% saccharide in PYF medium, 37° C., four days, anaerobic
[4] = system: internal content of rat cecum; test: Fermentation test; format: in vitro ADME
Method: The internal content of rat cecum was collected by anesthetizing a Wister male rat with ether, anatomizing the rat, collecting the internal content under anaerobic conditions, and suspending the resultant with 4-fold volumes of a 0.1 M aqueous solution of sodium bicarbonate. The cyclotetrasaccharide was added to the internal content of rat cecum in an amount of about 7% by weight, and the levels of cyclotetrasaccharide remained just after and 12 hours after the addition of the internal content were quantified on gas chromatography.

[5] = Inclusion action; format: physicochemical
Method: To 100 g aliquots of the aqueous solution was added 2 g of methanol, 3 g of ethanol, or 4.6 g acetic acid to be included by the cyclotetrasaccharide. Thereafter, each of the resulting solutions was filtered to remove non-inclusion products, and the filtrates were dried in vacuo. As a control, similar inclusion products were prepared by using “ISOELITE™ P”, a branched cyclodextrin commercialized by Maruha K.K., Tokyo, Japan, which were known to have inclusion ability.
To measure the amount of the inclusion products in the resulting lyophilized powders, one gram of each of the powders was dissolved in five milliliters of water and extracted after admixing with five milliliters of diethylether. The extraction was repeated, and the resulting extracts were quantified on gas chromatography.

SMILES: OCC1OC2OCC3O[C@H](O[C@H]4C(O)C(CO)OC(OCC5O[C@H](O[C@@H](C1O)C2O)C(O)C(O)[C@@H]5O)C4O)C(O)C(O)[C@@H]3O (stereo partly drawn) [cyclotetrasaccharide, cyclo{→6)-α-D-glucopyranosyl-(1→3)-α-D-glucopyranosyl-(1→6)-α-D-glucopyranosyl-(1→3)-α-D-glucopyranosyl-(1→}]
- Assimilability [1]: − (judged as negative (−) when the post culture had a pH of 6.0 or higher)
- Saturation concentration (%) ([2]; 10 ° C.): 30.3%
- Saturation concentration (%) ([2]; 30 ° C.): 34.2%
- Saturation concentration (%) ([2]; 50 ° C.): 42.6%
- Saturation concentration (%) ([2]; 70 ° C.): 53.0%
- Saturation concentration (%) ([2]; 90 ° C.): 70.5%
- Assimilability [3]: − (judged as negative (−) when the post culture had a pH of 6.0 or higher)
- cyclotetrasaccharide remained intact ([4]; 12 hours after the addition): 93%
- level of cyclotetrasaccharide remained ([4]; 12 hours after the addition): 63.0 mg per one gram of the internal content of rat cecum
- level of cyclotetrasaccharide remained ([4]; just after the addition): 68.0 mg per one gram of the internal content of rat cecum
- inclusion ability relative to that of the branched cyclodextrin by weight [5]: about 2 folds
- Inclusion amount (mg/g lyophilized powder) ([5]; inclusion product Acetic acid): 67.74 mg/g lyophilized powder
- Inclusion amount (mg/g lyophilized powder) ([5]; inclusion product Ethanol): 17.26 mg/g lyophilized powder
- Inclusion amount (mg/g lyophilized powder) ([5]; inclusion product Methanol): 6.71 mg/g lyophilized powder
